Test results: ChEMBL document CHEMBL4613205, “Peptide-based and small synthetic molecule inhibitors on PD-1/PD-L1 pathway: A new choice for immunotherapy?” (Eur J Med Chem, 2019)
One block for each compound: values may come before it. Bridge positions count the residues as written; N and C are the ends. Square brackets hold non-standard residues; d marks the D form. Peptide text beside a SMILES is read from it. * marks the point of attachment. ξ: configuration not given here. X1 = NC(CO)C(=O)NC(Cc1ccccc1)C(=O)NCCCCN*; ξE = NC(CCC(=O)O)C(=O)O; ξK = NCCCCC(N)C(=O)O

Experiments:
Splenocyte [1] = assay: Antiproliferative activity against mouse splenocytes relative to control; format: functional; parameters: concentration or dose not given beside the values
[2] = biological target: T1, Programmed cell death 1 ligand 1 (Homo sapiens, UniProt Q9NZQ7); assay: Antagonist activity against PDL1 (unknown origin)
[3] = biological target: Programmed cell death protein 1/Programmed cell death 1 ligand 1 (Homo sapiens, UniProt Q15116+Q9NZQ7); assay: Inhibition of human PD1/PDL1 protein-protein interaction by HTRF assay; format: protein-complex assay
[4] = biological target: T2, Programmed cell death 1 ligand 2 (Homo sapiens, UniProt Q9BQ51); assay: Inhibition of PDL2 (unknown origin)
T2 sequence (Q9BQ51 whole entry): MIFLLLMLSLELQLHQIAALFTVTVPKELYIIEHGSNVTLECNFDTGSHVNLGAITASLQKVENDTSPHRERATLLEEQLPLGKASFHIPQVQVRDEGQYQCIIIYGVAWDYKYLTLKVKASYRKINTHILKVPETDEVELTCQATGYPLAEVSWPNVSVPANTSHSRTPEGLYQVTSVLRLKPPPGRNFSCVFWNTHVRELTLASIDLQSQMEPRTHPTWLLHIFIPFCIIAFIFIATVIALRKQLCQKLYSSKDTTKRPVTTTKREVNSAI

Splenocyte [5] = assay: Antiproliferative activity against mouse splenocytes at 100 nM relative to control; format: functional
[6] = biological target: T1, Programmed cell death 1 ligand 1; assay: Inhibition of PDL1 (unknown origin)
CT26 = assay: Antitumor activity against mouse CT26 cells xenografted in mouse assessed as reduction in tumor growth at 3 mg/kg after 25 days relative to control; format: functional; conditions: CT26, 600 h, read-out: TGI
HEK293 = assay: Antiproliferative activity against HEK293 cells; format: functional, cell-based; conditions: Homo sapiens
B16-F10 = assay: Antitumor activity against mouse B16F10 cells xenografted in mouse assessed as reduction in tumor growth at 5 mg/kg, sc qd after 14 days relative to control; format: functional; conditions: 336 h, read-out: TGI
4T1 = assay: Antitumor activity against mouse 4T1 cells xenografted in mouse assessed as reduction in tumor growth at 3 mg/kg, sc qd after 40 days relative to control; format: functional; conditions: 4T1, sc, 960 h, read-out: TGI
MDA-MB-231 = assay: Antiproliferative activity against human MDA-MB-231 cells; format: functional, cell-based

Chain of Programmed cell death protein 1/Programmed cell death 1 ligand 1 (Q15116 whole entry): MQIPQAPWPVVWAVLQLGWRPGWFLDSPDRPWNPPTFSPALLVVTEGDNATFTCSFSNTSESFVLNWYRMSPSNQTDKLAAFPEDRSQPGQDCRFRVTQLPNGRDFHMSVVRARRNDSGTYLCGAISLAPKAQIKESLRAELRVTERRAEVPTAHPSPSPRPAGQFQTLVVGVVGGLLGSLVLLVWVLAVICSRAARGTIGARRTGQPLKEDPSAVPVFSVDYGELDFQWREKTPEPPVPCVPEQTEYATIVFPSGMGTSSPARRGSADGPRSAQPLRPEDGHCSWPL
Chain of Programmed cell death protein 1/Programmed cell death 1 ligand 1 (Q9NZQ7 whole entry): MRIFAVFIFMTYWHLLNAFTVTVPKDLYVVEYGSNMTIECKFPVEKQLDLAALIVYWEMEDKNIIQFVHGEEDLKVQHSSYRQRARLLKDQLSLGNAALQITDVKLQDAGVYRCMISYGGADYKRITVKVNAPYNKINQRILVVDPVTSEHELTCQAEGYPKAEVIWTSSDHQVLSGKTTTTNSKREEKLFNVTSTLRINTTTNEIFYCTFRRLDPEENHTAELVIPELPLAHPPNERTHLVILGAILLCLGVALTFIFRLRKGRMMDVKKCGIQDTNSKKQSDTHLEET
T1 sequence (Q9NZQ7 whole entry): as above

SMILES: NCCCC[C@H](N)c1nnc([C@H](CC(N)=O)NC(=O)N[C@@H](CCC(=O)O)C(=O)O)o1
Activity (Splenocyte [1]): 79%

SMILES: N#Cc1cncc(COc2cc(O[C@H]3CCc4c(-c5ccccc5)cccc43)c(Cl)cc2CN[C@@H](CO)C(=O)O)c1
IC50 [2]: < 100 nM

SMILES: Cc1c(NC(=O)c2cc(CN3CCCC[C@H]3C(=O)O)cn(C)c2=O)cccc1-c1ccccc1
IC50 [3]: < 100 nM

SMILES: O=C(/C=C/c1ccc(O)c(O)c1)O[C@H]1C[C@@](O)(C(=O)O)C[C@H](O)[C@@H]1O
IC50 [2]: 36600 nM

SMILES: Cc1c(-c2ccccc2)cccc1-c1cn2nc(CNCCO)cnc2n1
IC50 [2]: < 100 nM

SMILES: Cc1c(/C=C/c2cc(CNC(C)(CO)C(=O)O)ccc2C(F)(F)F)cccc1-c1ccc2c(c1)OCCO2 (configuration not stated)
IC50 [3]: 18 nM

SMILES: C[C@@H](O)[C@H](NC(=O)N[C@@H](CC(N)=O)C(=O)NNC(=O)[C@@H](N)CO)C(=O)O
EC50 [4]: 40 nM | Activity (Splenocyte [5]): 68% | EC50 [6]: 30 nM | inhibition in vivo at 3 mg/kg (CT26): 46%

SMILES: N#Cc1c(NC(=O)c2ccc(CNCCO)cn2)cccc1-c1ccccc1
IC50 [3]: < 10 nM

SMILES: Cc1c(-c2ccccc2)cccc1-c1nc2cc(CNCCO)ccc2o1
IC50 [2]: < 100 nM

IC50 (MDA-MB-231): 0.41 nM
SMILES: CC[C@H](C)[C@H](NC(=O)[C@H](CCC(N)=O)NC(=O)[C@H](C)NC(=O)[C@H](CCCCN)NC(=O)[C@@H]1CCCN1C(=O)[C@H](C)NC(=O)[C@H](CC(C)C)NC(=O)[C@H](CCC(N)=O)NC(=O)[C@@H](NC(=O)[C@@H](NC(=O)[C@H](CCCNC(=N)N)NC(=O)[C@H](Cc1ccccc1)NC(=O)[C@H](CCCCNC(=O)[C@H](Cc1ccccc1)NC(=O)[C@H](CO)NC(=O)[C@H](CCC(=O)O)NC(=O)[C@H](CO)NC(=O)[C@@H](NC(=O)[C@H](CC(N)=O)NC(=O)[C@@H](N)CO)[C@@H](C)O)NC(=O)[C@H](Cc1ccccc1)NC(=O)[C@H](CO)NC(=O)[C@H](CCC(=O)O)NC(=O)[C@H](CO)NC(=O)[C@@H](NC(=O)[C@H](CC(N)=O)NC(=O)[C@@H](N)CO)[C@@H](C)O)C(C)C)[C@@H](C)O)C(=O)N[C@@H](CCCCN)C(=O)N[C@@H](CCC(=O)O)C(N)=O
IC50 (HEK293): 0.72 nM | inhibition in vivo at 5 mg/kg (B16-F10): 44% | inhibition in vivo at 3 mg/kg (4T1): 44%

SMILES: Cc1c(COc2cc(OCc3cncc(C#N)c3)c(CN(C)C(CO)(CO)CO)cc2Cl)cccc1-c1cccc(OCCCN2CCC(F)(F)C2)c1C
IC50 [3]: 0.5 nM

SMILES: NC(=O)C[C@H](NC(=O)N[C@@H](CO)C(=O)O)c1nnc(-c2cnccn2)o1
Activity (Splenocyte [1]): 63%

SMILES: NCCCC[C@H](NC(=O)N[C@@H](CC(N)=O)C(=O)NNC(=O)[C@@H](N)CO)C(=O)O
Activity (Splenocyte [1]): 87%

SMILES: NC(=O)C[C@H](NC(=O)N[C@@H](CO)C(=O)O)c1nc([C@@H](N)CO)no1
Activity (Splenocyte [1]): 91%

SMILES: CCCNC(=O)CC[C@H](NC(=O)N[C@H](C(=O)O)[C@@H](C)O)c1nc([C@@H](N)CO)no1
Activity (Splenocyte [5]): 119%

SMILES: O=C(O)C[C@H]1NC(=O)N[C@H](CO)C(=O)NCCOCCOCC(=O)N[C@@H](CO)C(=O)NNC1=O
Activity (Splenocyte [1]): 92%

SMILES: Cc1c(-c2ccccc2)cccc1-c1nc2c(s1)CNCC2
IC50 [2]: < 100 nM

SMILES: N#Cc1c(-c2ccc3c(c2)OCCO3)cccc1N1CCC(N[C@H]2C[C@@H](O)C2)CC1
IC50 [2]: < 100 nM

SMILES: C[C@@H](O)[C@@H]1NC(=O)C(NC(=O)[C@@H](N)CO)CCC(=O)NCCCCC(C(=O)N[C@@H](CO)C(=O)N[C@@H](Cc2ccccc2)C(N)=O)NC(=O)[C@H](CO)NC1=O (some centres not stated) (H-S[ξE]TS[ξK]SF-NH2; lactam 2-5)
Activity (Splenocyte [5]): 78% | inhibition in vivo at 5 mg/kg (B16-F10): 54%

SMILES: N#Cc1cccc(COc2cc(OCc3cccc(-c4ccccc4)c3Br)c(Cl)cc2CN2CCCC[C@H]2C(=O)O)c1
IC50 [3]: 800000 nM

SMILES: C[C@@H](O)[C@H](N)c1nnc([C@H](CCC(N)=O)NC(=O)N[C@@H](CO)C(=O)O)o1
Activity (Splenocyte [1]): 92%

SMILES: C[C@@H](O)[C@H](NC(=O)[C@H](CC(N)=O)NC(=O)[C@@H](N)CO)C(=O)N[C@@H](CO)C(=O)NC(CCC(=O)NCCCCNC(=O)C(Cc1ccccc1)NC(=O)C(N)CO)C(N)=O (some centres not stated) (H-SNTS[ξE](X1)-NH2)
inhibition in vivo at 5 mg/kg (B16-F10): 64%

SMILES: Cc1c(COc2cc(OCc3cncc(C#N)c3)c(CN(C)C(C)(CO)CO)cc2Cl)cccc1-c1ccnc(OCCCN2CCCCC2)c1Cl
IC50 [3]: < 10 nM

SMILES: NC(=O)C[C@H](N)c1nc([C@@H](N)CO)no1
Activity (Splenocyte [5]): 93%

SMILES: C#CC[C@H](NC(=O)N[C@H](C(=O)O)[C@@H](C)O)c1nc(-c2cnccn2)no1
Activity (Splenocyte [1]): 92%
